According to US10117866B2, “Promoting axon regeneration in the adult CNS through control of protein translation” (CHILDREN'S MEDICAL CENTER CORPORATION, priority 2008, dated 2018):

Each compound was assayed against PTEN (Homo sapiens, UniProt P60484) (assay: PTEN inhibition assay (malachite green phosphate release), IC50 determination). Settings: not given.
Type: biochemical
Experimental: PTEN inhibitors are evaluated in an inhibition assay conducted in half-volume 96 well plates in 25 ul total volume per well containing 2 mM dithiothreitol (DTT) and 0.1 mM Tris buffer, pH 8.0 and up to 3 ug total protein of PTEN. Small volumes of the test inhibitor candidates (stock concentrated solutions of 25 mM in DMSO) are mixed with the PTEN solution at room temperature for about 10 minutes and then substrate is added. The reaction mix is then incubated in 37° C. for 20 minutes. Subsequent to this a 100 ul aliquot of malachite green buffer (Upstate, Charlottesville, Va.) is added to develop the color in the dark at room temperature (this solution also stops the dephosphorylation reaction). A SpectraMax Plus spectrophotometric plate reader (Molecular Devices, Sunnyvale, Calif.) is used to measure the optical density at 650 nanometers. […]
To determine the dose response of potential PTEN inhibitors, doses of test compounds ranging from 1 nM to 250 uM (final reaction mix concentrations) are evaluated in the general PTEN inhibition assay (supra). […] Once the concentration range is determined, at which PTEN activity changes dramatically, two additional concentration data points within this range are added and the PTEN inhibition assay is then rerun for the second round. […]

PTEN, sequence (P60484 whole entry, species assumed): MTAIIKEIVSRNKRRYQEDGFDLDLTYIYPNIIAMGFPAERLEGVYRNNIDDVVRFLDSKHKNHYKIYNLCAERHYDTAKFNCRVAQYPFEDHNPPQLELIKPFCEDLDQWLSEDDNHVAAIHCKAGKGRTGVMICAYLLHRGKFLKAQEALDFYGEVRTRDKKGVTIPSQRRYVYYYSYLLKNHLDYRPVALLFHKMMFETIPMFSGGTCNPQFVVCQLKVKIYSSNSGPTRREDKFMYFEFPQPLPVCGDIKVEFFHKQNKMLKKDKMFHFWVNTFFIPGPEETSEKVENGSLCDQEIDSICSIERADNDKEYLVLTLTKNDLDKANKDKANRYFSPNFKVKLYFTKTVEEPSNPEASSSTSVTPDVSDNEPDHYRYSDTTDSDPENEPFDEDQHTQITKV

| Compound | IC50 |
| --- | --- |
| CC(C)(C)C(=O)Nc1cnc2c(c1)C(=O)C(=O)c1cccnc1-2 | 2 µM |
| O=C(COc1ccccc1)Nc1cnc2c(c1)C(=O)C(=O)c1cccnc1-2 | 0.3 µM |

What follows are compounds tested on dorsal corticospinal tract (CST) axons (assay: Spinal injury (dorsal corticospinal tract transection) in rats, intrathecal or intravenous PTEN inhibitor). Settings: intrathecal or intravenous administration, rat spinal injury model.
Type: in vivo, Sprague Dawley rats
Source text: Methodology for this animal study was adapted from Nash et al (J. Neurosci (2002) 22:7111-7120), Luo et al (Molecular Pain (2005) 1:29), and Obata et al (J. Neurosci. (2004) 24:10211-22).
Adult Sprague Dawley rats ([…]) are trained and tested in a directed forepaw reaching (DFR) apparatus which measures grasping ability. The apparatus, which is described in detail by Nash et al., supra, is a box that consists of two compartments: a main compartment for housing the rats and a minor compartment for the food, separated by a PLEXIGLAS™ divider. The minor compartment is subdivided into slots of equal size, each holding a pellet of food. Between the slots and the PLEXIGLAS™ there is a gap. The apparatus is configured such that in order to retrieve a food pellet from a slot, a rat must extend a forelimb through a hole in the PLEXIGLAS™ divider, and grasp the pellet and lift it over the gap and out of the slot. If the rat merely rakes the food in the slot towards the hole in the PLEXIGLAS™, the food will drop from the slot into the gap and fall to the floor of the minor compartment. The floor of the minor compartment can be configured to allow a rat to retrieve food that drops or it can be lowered to prevent the rat from reaching dropped food. Prior to inducing spinal injury, the rats are food restricted, receiving ˜[…] body weight per day, before and throughout training and testing. Weight is monitored to ensure that rats are reduced to no less than 80% of their original body weight at any time. All rats are given shaping periods for 2-3 d in the box to allow them to learn the task while they become familiar with the testing situation. Animals are trained twice per day for 5 d and then tested twice per day for 5 d, and presurgical DFR data is collected. During the testing period, rats are given 5 min to complete the task and are allowed to make as many attempts as they want during this time period. Rats are required to return to at least 95% of their original weight to ensure that they are healthy before undergoing surgery.
Rats are randomly assigned to control or experimental groups. Sham control rats undergo surgical procedure without lesioning, and with or without placement of a mini osmotic pump (Alzet type 2001; Durect, Cupertino, Calif.). Lesioned control rats receive no treatment, tail vein injection with vehicle only treatment, insertion of a mini osmotic pump only treatment, or insertion of a mini osmotic pump with vehicle only treatment. After anesthesia with isoflurane, the rats are placed on an operating board in such a way as to bend the cervical spinal cord for maximum exposure. A laminectomy is performed exposing the dorsum of the spinal cord between C2 and C4. […]

| Compound | axonal regeneration after spinal injury |
| --- | --- |
| O.O.O.OO.OO.[K+].[OH-].[V].c1cnc2c(c1)ccc1cccnc12 [bpV(phen), potassium bisperoxo(1,10-phenanthroline)oxovanadate (V)] | can be promoted |
| O.O.O=C([O-])c1ccccn1.OO.OO.[K+].[K+].[OH-].[V] [bpV(pic), dipotassium bisperoxo(picolinato)oxovanadate (V)] | can be promoted |
| dipotassium bisperoxo(5-hydroxypyridine-2-carboxyl)oxovanadate (V) [bpV(HOpic)] | can be promoted |
| potassium bisperoxo(bipyridine)oxovanadate (V) [bpV(bipy)] | can be promoted |
